Results from article PMC12329717 (Biochemistry, 2025).

How the values were obtained:
[1] = target: T1, HnoK (Caulobacter vibrioides, UniProt A0A0H3CAQ8, D543N); test: […] autophosphorylation, SDS-PAGE autoradiography; format: biochemical; settings: 1 mM ATP with [gamma-32P]ATP, Mn2+ or Mg2+ 5 mM (Mn2+ preferred), room temperature; MBP fusion; labelled compound
T1 construct: gene CCNA_03088; N-terminal 6-His version also tested; E. coli BL21(DE3); homodimer

[2] = target: Caulobacter crescentus histidine kinase HnoK, as purified (Caulobacter crescentus); test: SEC; HiPrep Sephacryl S-200 HR column in 20 mM Tris, pH 8, 150 mM NaCl; elution volumes at the last step of purification

T1 sequence (A0A0H3CAQ8 entry or part of it D543N): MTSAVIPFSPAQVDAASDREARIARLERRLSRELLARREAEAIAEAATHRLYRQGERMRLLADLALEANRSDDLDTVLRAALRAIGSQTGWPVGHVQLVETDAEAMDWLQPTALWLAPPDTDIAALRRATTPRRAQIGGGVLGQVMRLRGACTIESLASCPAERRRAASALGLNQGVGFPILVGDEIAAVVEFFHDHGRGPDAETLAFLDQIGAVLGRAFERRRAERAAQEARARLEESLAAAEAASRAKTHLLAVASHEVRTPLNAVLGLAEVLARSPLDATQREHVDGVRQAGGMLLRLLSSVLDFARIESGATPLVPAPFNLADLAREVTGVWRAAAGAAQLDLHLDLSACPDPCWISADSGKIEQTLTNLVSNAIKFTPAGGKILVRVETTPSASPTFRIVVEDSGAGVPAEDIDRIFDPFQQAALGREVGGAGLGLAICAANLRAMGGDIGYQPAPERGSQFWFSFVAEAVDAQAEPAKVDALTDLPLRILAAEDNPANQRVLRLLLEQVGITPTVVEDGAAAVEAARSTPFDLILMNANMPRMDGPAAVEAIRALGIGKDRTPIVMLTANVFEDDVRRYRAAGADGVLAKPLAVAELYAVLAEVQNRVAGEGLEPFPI

| stoichiometry N [2] | Molecule | 32P autophosphorylation, SDS-PAGE autoradiography [1] |
| --- | --- | --- |
|  | Nc1ncnc2c1ncn2[C@@H]1O[C@H](COP(=O)(O)OP(=O)(O)OP(=O)(O)O)[C@@H](O)[C@H]1O [ATP] | D543N HnoK-MBP was used for the autophosphorylation assays shown |
| 2 | Caulobacter crescentus histidine kinase HnoK, as purified (from UniProt A0A0H3CAQ8 1-624) (enzyme) |  |
